Data as given in US12371454B2, “Cyclic peptide compound having Kras inhibitory action” (priority 2019, dated 2025).
pIC50: −log10 of the molar value. Positions of bridges follow the written chain, without caps; N, C: chain ends. Non-standard residues stand in square brackets, D forms with d. Residues, ends and D or L forms follow the SMILES beside them. *: point of attachment. hPhe(3,5-F2-4-CF3) = N[C@@H](CCc1cc(F)c(C(F)(F)F)c(F)c1)C(=O)O; hPhe(3-Cl-4-CF3) = N[C@@H](CCc1ccc(C(F)(F)F)c(Cl)c1)C(=O)O; hPhe(3-F,4-CF3) = N[C@@H](CCc1ccc(C(F)(F)F)c(F)c1)C(=O)O; Piperazinyl(4-(3-oxetanyl)) = C1OCC1N1CCN(*)CC1; NMeAbu(4,4,4-F3) = CN[C@@H](CC(F)(F)F)C(=O)O; NMePhe(4-Me) = CN[C@@H](Cc1ccc(C)cc1)C(=O)O; NMeGly(cPent) = CN[C@H](C(=O)O)C1CCCC1; NMeGly(cBu) = CN[C@H](C(=O)O)C1CCC1; NMeCha = CN[C@@H](CC1CCCCC1)C(=O)O; NMeChg = CN[C@H](C(=O)O)C1CCCCC1; NMeI = CC[C@H](C)[C@H](NC)C(=O)O; Piperidide(4-Me) = CC1CCN(*)CC1; NMeD = CN[C@@H](CC(=O)O)C(=O)O; NMeL = CN[C@@H](CC(C)C)C(=O)O; Oxazolidin(3-yl) = C1CN(*)CO1; d(β3hP) = O=C(O)C[C@H]1CCCN1; NMeV = CN[C@H](C(=O)O)C(C)C; d(β3hA) = C[C@@H](N)CC(=O)O; Iva = CC[C@](C)(N)C(=O)O; NMeA = CN[C@@H](C)C(=O)O; Piperidide = C1CCN(*)CC1; Pyrrolidide = C1CCN(*)C1; Ac5c = NC1(C(=O)O)CCCC1; Aze = O=C(O)[C@@H]1CCN1; Ac4c = NC1(C(=O)O)CCC1; X14 = CC1(C)CCN(*)C1; NEtG = CCNCC(=O)O; Sar = CNCC(=O)O

Columns and labels:
[1] = target: T1, Kras and SOS1 (biotin-tagged human Kras loaded with GDP, His-tagged human SOS1) (Homo sapiens, UniProt P01116, G12D); assay: Protein-protein interaction inhibition between Kras and SOS1 (KrasGl2D-SOS PPI) using AlphaScreen; format: binding; details: AlphaScreen; biotin-tagged human Kras loaded with GDP, His-tagged human SOS1; read-out: KRAS G12D-SOS PPI IC50
T1 construct: made in house; host or cells: E. coli (stated for Kras only)
How it was run: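 Read-out is acceptor-bead light at 520-620 nm, arising when 680 nm-irradiated nickel donor beads pass singlet oxygen to streptavidin acceptors. The bead pair links His-tagged SOS1 with biotin-tagged, GDP-bound Kras from E. coli.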

[2] = tested on: Human pancreatic cancer cell line AsPC-1; assay: Measurement of AsPC-1 cell growth inhibition (AsPC-1 CGI); format: cell-based; details: 96 h
How it was run: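 AsPC-1 cells in 15% FBS RPMI-1640 were exposed to test compound for 96 hours at 37° C, with CellTiter-Glo as endpoint.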

T1 sequence (P01116 1-188 isoform P01116-2 G12D): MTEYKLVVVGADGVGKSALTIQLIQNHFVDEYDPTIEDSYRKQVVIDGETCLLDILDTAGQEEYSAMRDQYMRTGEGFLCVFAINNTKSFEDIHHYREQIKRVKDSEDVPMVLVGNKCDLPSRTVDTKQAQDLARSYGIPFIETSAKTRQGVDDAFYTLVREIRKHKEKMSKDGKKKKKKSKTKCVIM

SMILES | pIC50 [1] | pIC50 [2]
CC[C@H](C)[C@@H]1NC(=O)[C@H](CC(C)C)N(C)C(=O)C[C@@H](C(=O)N2CCCCC2)N(C)C(=O)[C@H](C2CCCCC2)N(C)C(=O)C2(CCCC2)NC(=O)[C@@H]2CCCN2C(=O)[C@H](CCc2ccc(C(F)(F)F)c(Cl)c2)NC(=O)CN(C)C(=O)[C@H](CC2CCCCC2)N(C)C(=O)CN(C)C(=O)CN(CC)C1=O [Compound 1255] ([NMeL]I[NEtG][Sar][NMeCha][Sar][hPhe(3-Cl-4-CF3)]P[Ac5c][NMeChg][NMeD]-Piperidide; lactam N-11) | 8.85 | 6.30 to 7.00
CC[C@H](C)[C@@H]1NC(=O)[C@H](CC(C)C)N(C)C(=O)C[C@@H](C(=O)N2CCC(C)(C)C2)NC(=O)[C@H]([C@@H](C)CC)N(C)C(=O)C2(CCCC2)NC(=O)[C@@H]2CCCN2C(=O)[C@H](CCc2ccc(C(F)(F)F)c(Cl)c2)NC(=O)CN(C)C(=O)[C@H](CC2CCCCC2)N(C)C(=O)CN(C)C(=O)CN(C)C1=O [Compound 1273] ([NMeL]I[Sar][Sar][NMeCha][Sar][hPhe(3-Cl-4-CF3)]P[Ac5c][NMeI]D-X14; lactam N-11) | 8.14 | 6.30 to 7.00
CC[C@H](C)[C@@H]1NC(=O)[C@H](C2CCC2)N(C)C(=O)C[C@@H](C(=O)N2CCCC2)N(C)C(=O)[C@H](C2CCCCC2)N(C)C(=O)C2(CCCC2)NC(=O)[C@@H]2CCCN2C(=O)[C@H](CCc2cc(F)c(C(F)(F)F)c(F)c2)NC(=O)CN(C)C(=O)[C@H](CC2CCCCC2)N(C)C(=O)CN(C)C(=O)CN(C)C1=O [Compound 1275] ([NMeGly(cBu)]I[Sar][Sar][NMeCha][Sar][hPhe(3,5-F2-4-CF3)]P[Ac5c][NMeChg][NMeD]-Pyrrolidide; lactam N-11) | 9.19 | 7.30 to 7.70
CC[C@H](C)[C@@H]1NC(=O)[C@H](CC(F)(F)F)N(C)C(=O)C[C@@H](C(=O)N2CCCC2)N(C)C(=O)[C@H](C2CCCCC2)N(C)C(=O)C2(CCCC2)NC(=O)[C@@H]2CCCN2C(=O)[C@H](CCc2cc(F)c(C(F)(F)F)c(F)c2)NC(=O)CN(C)C(=O)[C@H](Cc2ccc(C)cc2)N(C)C(=O)CN(C)C(=O)CN(C)C1=O [Compound 1278] ([NMeAbu(4,4,4-F3)]I[Sar][Sar][NMePhe(4-Me)][Sar][hPhe(3,5-F2-4-CF3)]P[Ac5c][NMeChg][NMeD]-Pyrrolidide; lactam N-11) | 9.19 | 7.30 to 7.70
CC[C@H](C)[C@@H]1NC(=O)[C@H](CC(C)C)N(C)C(=O)C[C@@H](C(=O)N2CCN(C3COC3)CC2)N(C)C(=O)[C@H](C2CCCCC2)N(C)C(=O)C2(CCCC2)NC(=O)[C@@H]2CCCN2C(=O)[C@H](CCc2ccc(C(F)(F)F)c(Cl)c2)NC(=O)CN(C)C(=O)[C@H](CC2CCCCC2)N(C)C(=O)CN(C)C(=O)CN(C)C1=O [Compound 1284] ([NMeL]I[Sar][Sar][NMeCha][Sar][hPhe(3-Cl-4-CF3)]P[Ac5c][NMeChg][NMeD]-{Piperazinyl(4-(3-oxetanyl))}; lactam N-11) | 9.16 | 6.30 to 7.00
CC[C@H](C)[C@@H]1NC(=O)[C@H](CC(C)C)N(C)C(=O)C[C@@H](C(=O)N2CCCCC2)N(C)C(=O)[C@H](C2CCCCC2)N(C)C(=O)[C@](C)(CC)NC(=O)[C@@H]2CCCN2C(=O)[C@H](CCc2ccc(C(F)(F)F)c(Cl)c2)NC(=O)CN(C)C(=O)[C@H](CC2CCCCC2)N(C)C(=O)CN(C)C(=O)CN(C)C1=O [Compound 1302] ([NMeL]I[Sar][Sar][NMeCha][Sar][hPhe(3-Cl-4-CF3)]P[Iva][NMeChg][NMeD]-Piperidide; lactam N-11) | 9.12 | 6.30 to 7.00
CC[C@H](C)[C@@H]1NC(=O)[C@H](CC(C)C)N(C)C(=O)C[C@@H](C(=O)N2CCCCC2)N(C)C(=O)[C@H](C2CCCCC2)N(C)C(=O)C2(CCCC2)NC(=O)[C@@H]2CCCN2C(=O)[C@H](CCc2ccc(C(F)(F)F)c(Cl)c2)NC(=O)CN(C)C(=O)[C@H](CC2CCCCC2)N(C)C(=O)CN(C)C(=O)CNC1=O [Compound 1315] ([NMeL]IG[Sar][NMeCha][Sar][hPhe(3-Cl-4-CF3)]P[Ac5c][NMeChg][NMeD]-Piperidide; lactam N-11) | 9.00 | 6.30 to 7.00
CC[C@H](C)[C@@H]1NC(=O)[C@H](CC(C)C)N(C)C(=O)C[C@@H](C(=O)N2CCC(C)(C)C2)N(C)C(=O)[C@H](C(C)C)N(C)C(=O)C2(CCCC2)NC(=O)[C@@H]2CCCN2C(=O)[C@H](CCc2ccc(C(F)(F)F)c(Cl)c2)NC(=O)CN(C)C(=O)[C@H](CC2CCCCC2)N(C)C(=O)[C@@H]2CCN2C(=O)[C@H](C)N(C)C1=O [Compound 1323] ([NMeL]I[NMeA][Aze][NMeCha][Sar][hPhe(3-Cl-4-CF3)]P[Ac5c][NMeV][NMeD]-X14; lactam N-11) | 8.37 | 6.30 to 7.00
CC[C@H](C)[C@@H]1NC(=O)[C@H](CC(C)C)N(C)C(=O)C[C@@H](C(=O)N2CCOC2)N(C)C(=O)[C@H](C(C)C)N(C)C(=O)C2(CCCC2)NC(=O)[C@@H]2CCCN2C(=O)[C@H](CCc2ccc(C(F)(F)F)c(Cl)c2)NC(=O)CN(C)C(=O)[C@H](CC2CCCCC2)N(C)C(=O)[C@@H]2CCN2C(=O)[C@H](C)N(C)C1=O [Compound 1329] ([NMeL]I[NMeA][Aze][NMeCha][Sar][hPhe(3-Cl-4-CF3)]P[Ac5c][NMeV][NMeD]-{Oxazolidin(3-yl)}; lactam N-11) | 8.77 | 6.30 to 7.00
CC[C@H](C)[C@@H]1NC(=O)[C@H](CC(C)C)N(C)C(=O)C[C@H]2CCCN2C(=O)[C@H](C(C)C)N(C)C(=O)C2(CCCC2)NC(=O)[C@@H]2CCCN2C(=O)[C@H](CCc2ccc(C(F)(F)F)c(Cl)c2)NC(=O)CN(C)C(=O)[C@H](CC2CCCCC2)N(C)C(=O)[C@@H]2CCN2C(=O)[C@H](C)N(C)C1=O [Compound 1332] (cyclo([Ac5c][NMeV][d(β3hP)][NMeL]I[NMeA][Aze][NMeCha][Sar][hPhe(3-Cl-4-CF3)]P)) | 7.64 | 6.30 to 7.00
CC[C@H](C)[C@@H]1NC(=O)[C@H](CC(C)C)N(C)C(=O)C[C@@H](C(=O)N2CCC(C)CC2)N(C)C(=O)[C@H](C2CCCCC2)N(C)C(=O)C2(CCCC2)NC(=O)[C@@H]2CCCN2C(=O)[C@H](CCc2ccc(C(F)(F)F)c(Cl)c2)NC(=O)CN(C)C(=O)[C@H](CC2CCCCC2)N(C)C(=O)CN(C)C(=O)CN(C)C1=O [Compound 1347] ([NMeL]I[Sar][Sar][NMeCha][Sar][hPhe(3-Cl-4-CF3)]P[Ac5c][NMeChg][NMeD]-{Piperidide(4-Me)}; lactam N-11) | 8.89 | 6.30 to 7.00
CC[C@H](C)[C@@H]1NC(=O)[C@H](CC(C)C)N(C)C(=O)C[C@@H](C(=O)N2CCCCC2)N(C)C(=O)[C@H](C(C)C)N(C)C(=O)C2(CCCC2)NC(=O)[C@@H]2CCCN2C(=O)[C@H](CCc2ccc(C(F)(F)F)c(F)c2)NC(=O)CN(C)C(=O)[C@H](CC2CCCCC2)N(C)C(=O)CN(C)C(=O)CN(C)C1=O [Compound 1454] ([NMeL]I[Sar][Sar][NMeCha][Sar][hPhe(3-F,4-CF3)]P[Ac5c][NMeV][NMeD]-Piperidide; lactam N-11) | 7.96 | 6.30 to 7.00
CC[C@H](C)[C@@H]1NC(=O)[C@H](CC(C)C)N(C)C(=O)C[C@@H](C)NC(=O)[C@H](C(C)C)N(C)C(=O)C2(CCCC2)NC(=O)[C@@H]2CCCN2C(=O)[C@H](CCc2ccc(C(F)(F)F)c(Cl)c2)NC(=O)CN(C)C(=O)[C@H](CC2CCCCC2)N(C)C(=O)CN(C)C(=O)CN(C)C1=O [Compound 1457] (cyclo([Ac5c][NMeV][d(β3hA)][NMeL]I[Sar][Sar][NMeCha][Sar][hPhe(3-Cl-4-CF3)]P)) | 7.96 | 6.30 to 7.00
CC(C)C[C@H]1C(=O)N[C@@H](C(C)C)C(=O)N(C)CC(=O)N(C)CC(=O)N(C)[C@@H](CC2CCCCC2)C(=O)N(C)CC(=O)N[C@@H](CCc2ccc(C(F)(F)F)c(F)c2)C(=O)N2CCC[C@H]2C(=O)NC2(CCCC2)C(=O)N(C)[C@@H](CC(C)C)C(=O)N(C)[C@H](C(=O)N2CCCCC2)CC(=O)N1C [Compound 1458] ([NMeL]V[Sar][Sar][NMeCha][Sar][hPhe(3-F,4-CF3)]P[Ac5c][NMeL][NMeD]-Piperidide; lactam N-11) | 8.14 | 6.30 to 7.00
CC[C@H](C)[C@@H]1NC(=O)[C@H](C)N(C)C(=O)C[C@@H](C)NC(=O)[C@H](C2CCCC2)N(C)C(=O)C2(CCCC2)NC(=O)[C@@H]2CCCN2C(=O)[C@H](CCc2ccc(C(F)(F)F)c(Cl)c2)NC(=O)CN(C)C(=O)[C@H](Cc2ccc(C)cc2)N(C)C(=O)[C@@H]2CCN2C(=O)CN(C)C1=O [Compound 1462] (cyclo([Ac5c][NMeGly(cPent)][d(β3hA)][NMeA]I[Sar][Aze][NMePhe(4-Me)][Sar][hPhe(3-Cl-4-CF3)]P)) | 9.10 | 6.30 to 7.00
CC[C@H](C)[C@@H]1NC(=O)[C@H](C)N(C)C(=O)C[C@@H](C)NC(=O)[C@H](C2CCCC2)N(C)C(=O)C2(CCC2)NC(=O)[C@@H]2CCCN2C(=O)[C@H](CCc2ccc(C(F)(F)F)c(Cl)c2)NC(=O)CN(C)C(=O)[C@H](Cc2ccc(C)cc2)N(C)C(=O)CN(C)C(=O)CN(C)C1=O [Compound 1466] (cyclo([Ac4c][NMeGly(cPent)][d(β3hA)][NMeA]I[Sar][Sar][NMePhe(4-Me)][Sar][hPhe(3-Cl-4-CF3)]P)) | 9.00 | 6.30 to 7.00
CC[C@H](C)[C@@H]1NC(=O)[C@H](CC(C)C)N(C)C(=O)C[C@@H](C)NC(=O)[C@H](C2CCCC2)N(C)C(=O)C2(CCC2)NC(=O)[C@@H]2CCCN2C(=O)[C@H](CCc2ccc(C(F)(F)F)c(Cl)c2)NC(=O)CN(C)C(=O)[C@H](Cc2ccc(C)cc2)N(C)C(=O)CN(C)C(=O)CN(C)C1=O [Compound 1498] (cyclo([Ac4c][NMeGly(cPent)][d(β3hA)][NMeL]I[Sar][Sar][NMePhe(4-Me)][Sar][hPhe(3-Cl-4-CF3)]P)) | 8.77 | 6.30 to 7.00
